Measurements reported in US9427440B2, “Macrocyclic indole derivatives useful as hepatitis C virus inhibitors” (Janssen Sciences Ireland UC, priority 2008, dated 2016).

Assays:
[1] = target: NS5B 5a isolate 4 (Hepatitis C virus genotype 5a, UniProt O39928); assay: Enzyme binding affinity, SPR (Biacore); set-up: species or system HCV
[2] = target: NS5B 1a isolate 1 (Hepatitis C virus genotype 1a, UniProt P27958)
[3] = target: NS5B 1a isolate 2 (Hepatitis C virus genotype 1a, UniProt P27958)
[4] = target: NS5B 1a isolate 3 (Hepatitis C virus genotype 1a, UniProt P27958)
[5] = target: NS5B 1a isolate 4 (Hepatitis C virus genotype 1a, UniProt P27958)
[6] = target: NS5B 1b isolate 2 (Hepatitis C virus genotype 1b, UniProt Q9WMX2)
[7] = target: NS5B 1b isolate 3 (Hepatitis C virus genotype 1b, UniProt Q9WMX2)
[8] = target: NS5B 2b isolate 2 (Hepatitis C virus genotype 2b, UniProt P26661)
[9] = target: T1, NS5B 4a isolate 1 (Hepatitis C virus genotype 4a, UniProt O39929)
[10] = target: T2, NS5B 4a isolate 2 (Hepatitis C virus genotype 4a, UniProt O39929)
[11] = target: T3, NS5B 4a isolate 3 (Hepatitis C virus genotype 4a, UniProt O39929)
[12] = target: T4, NS5B 6a isolate 5 (Hepatitis C virus genotype 6a, UniProt O39927)
[13] = target: T1, NS5B 4a isolate 1; assay: biochemical
[14] = target: T2, NS5B 4a isolate 2; assay: biochemical
[15] = target: T3, NS5B 4a isolate 3; assay: biochemical
[16] = target: T4, NS5B 6a isolate 5; assay: biochemical
[17] = target: HCV NS5B 1bJ4 (Hepatitis C virus genotype 1b (strain HC-J4) (HCV), UniProt O92972); assay: Inhibition assay with NS5b 1bJ4 (RdRp, SPA); format: biochemical; conditions: 50 nM NS5B 1bJ4 enzyme, radiolabeled GTP incorporation
[18] = test system: HCV type 1b replicon in Huh-7 luc/neo (Huh-Luc) cells; assay: HCV replicon assay (Huh-Luc, luciferase); conditions: Hepatitis C virus, Huh-7, 72 h
[19] = target: HCV NS5B con1b (Hepatitis C virus genotype 1b (isolate Con1) (HCV), UniProt Q9WMX2); assay: RNA-dependent RNA polymerase assay NS5B con1b; conditions: read-out: IC50 Con1b; 20 nM Con1b NS5B enzyme, primer-dependent transcription assay
Method: Fifty-percent inhibitory concentrations (Table 1: IC50 con1b) were determined according to the method as described previously (Pauwels et al, 2007, J Virol 81:6909-19) using a primer-dependent transcription assay. […] 600 nM GTP and 0.13 μCi of [^3H]GTP was then added to initiate the 40-μl reaction mixture, which was then incubated at room temperature for 2 h before the reaction was stopped by addition of 40-μl streptavidin-coated SPA beads.

HCV NS5B 1bJ4, sequence (O92972 whole entry, looked up): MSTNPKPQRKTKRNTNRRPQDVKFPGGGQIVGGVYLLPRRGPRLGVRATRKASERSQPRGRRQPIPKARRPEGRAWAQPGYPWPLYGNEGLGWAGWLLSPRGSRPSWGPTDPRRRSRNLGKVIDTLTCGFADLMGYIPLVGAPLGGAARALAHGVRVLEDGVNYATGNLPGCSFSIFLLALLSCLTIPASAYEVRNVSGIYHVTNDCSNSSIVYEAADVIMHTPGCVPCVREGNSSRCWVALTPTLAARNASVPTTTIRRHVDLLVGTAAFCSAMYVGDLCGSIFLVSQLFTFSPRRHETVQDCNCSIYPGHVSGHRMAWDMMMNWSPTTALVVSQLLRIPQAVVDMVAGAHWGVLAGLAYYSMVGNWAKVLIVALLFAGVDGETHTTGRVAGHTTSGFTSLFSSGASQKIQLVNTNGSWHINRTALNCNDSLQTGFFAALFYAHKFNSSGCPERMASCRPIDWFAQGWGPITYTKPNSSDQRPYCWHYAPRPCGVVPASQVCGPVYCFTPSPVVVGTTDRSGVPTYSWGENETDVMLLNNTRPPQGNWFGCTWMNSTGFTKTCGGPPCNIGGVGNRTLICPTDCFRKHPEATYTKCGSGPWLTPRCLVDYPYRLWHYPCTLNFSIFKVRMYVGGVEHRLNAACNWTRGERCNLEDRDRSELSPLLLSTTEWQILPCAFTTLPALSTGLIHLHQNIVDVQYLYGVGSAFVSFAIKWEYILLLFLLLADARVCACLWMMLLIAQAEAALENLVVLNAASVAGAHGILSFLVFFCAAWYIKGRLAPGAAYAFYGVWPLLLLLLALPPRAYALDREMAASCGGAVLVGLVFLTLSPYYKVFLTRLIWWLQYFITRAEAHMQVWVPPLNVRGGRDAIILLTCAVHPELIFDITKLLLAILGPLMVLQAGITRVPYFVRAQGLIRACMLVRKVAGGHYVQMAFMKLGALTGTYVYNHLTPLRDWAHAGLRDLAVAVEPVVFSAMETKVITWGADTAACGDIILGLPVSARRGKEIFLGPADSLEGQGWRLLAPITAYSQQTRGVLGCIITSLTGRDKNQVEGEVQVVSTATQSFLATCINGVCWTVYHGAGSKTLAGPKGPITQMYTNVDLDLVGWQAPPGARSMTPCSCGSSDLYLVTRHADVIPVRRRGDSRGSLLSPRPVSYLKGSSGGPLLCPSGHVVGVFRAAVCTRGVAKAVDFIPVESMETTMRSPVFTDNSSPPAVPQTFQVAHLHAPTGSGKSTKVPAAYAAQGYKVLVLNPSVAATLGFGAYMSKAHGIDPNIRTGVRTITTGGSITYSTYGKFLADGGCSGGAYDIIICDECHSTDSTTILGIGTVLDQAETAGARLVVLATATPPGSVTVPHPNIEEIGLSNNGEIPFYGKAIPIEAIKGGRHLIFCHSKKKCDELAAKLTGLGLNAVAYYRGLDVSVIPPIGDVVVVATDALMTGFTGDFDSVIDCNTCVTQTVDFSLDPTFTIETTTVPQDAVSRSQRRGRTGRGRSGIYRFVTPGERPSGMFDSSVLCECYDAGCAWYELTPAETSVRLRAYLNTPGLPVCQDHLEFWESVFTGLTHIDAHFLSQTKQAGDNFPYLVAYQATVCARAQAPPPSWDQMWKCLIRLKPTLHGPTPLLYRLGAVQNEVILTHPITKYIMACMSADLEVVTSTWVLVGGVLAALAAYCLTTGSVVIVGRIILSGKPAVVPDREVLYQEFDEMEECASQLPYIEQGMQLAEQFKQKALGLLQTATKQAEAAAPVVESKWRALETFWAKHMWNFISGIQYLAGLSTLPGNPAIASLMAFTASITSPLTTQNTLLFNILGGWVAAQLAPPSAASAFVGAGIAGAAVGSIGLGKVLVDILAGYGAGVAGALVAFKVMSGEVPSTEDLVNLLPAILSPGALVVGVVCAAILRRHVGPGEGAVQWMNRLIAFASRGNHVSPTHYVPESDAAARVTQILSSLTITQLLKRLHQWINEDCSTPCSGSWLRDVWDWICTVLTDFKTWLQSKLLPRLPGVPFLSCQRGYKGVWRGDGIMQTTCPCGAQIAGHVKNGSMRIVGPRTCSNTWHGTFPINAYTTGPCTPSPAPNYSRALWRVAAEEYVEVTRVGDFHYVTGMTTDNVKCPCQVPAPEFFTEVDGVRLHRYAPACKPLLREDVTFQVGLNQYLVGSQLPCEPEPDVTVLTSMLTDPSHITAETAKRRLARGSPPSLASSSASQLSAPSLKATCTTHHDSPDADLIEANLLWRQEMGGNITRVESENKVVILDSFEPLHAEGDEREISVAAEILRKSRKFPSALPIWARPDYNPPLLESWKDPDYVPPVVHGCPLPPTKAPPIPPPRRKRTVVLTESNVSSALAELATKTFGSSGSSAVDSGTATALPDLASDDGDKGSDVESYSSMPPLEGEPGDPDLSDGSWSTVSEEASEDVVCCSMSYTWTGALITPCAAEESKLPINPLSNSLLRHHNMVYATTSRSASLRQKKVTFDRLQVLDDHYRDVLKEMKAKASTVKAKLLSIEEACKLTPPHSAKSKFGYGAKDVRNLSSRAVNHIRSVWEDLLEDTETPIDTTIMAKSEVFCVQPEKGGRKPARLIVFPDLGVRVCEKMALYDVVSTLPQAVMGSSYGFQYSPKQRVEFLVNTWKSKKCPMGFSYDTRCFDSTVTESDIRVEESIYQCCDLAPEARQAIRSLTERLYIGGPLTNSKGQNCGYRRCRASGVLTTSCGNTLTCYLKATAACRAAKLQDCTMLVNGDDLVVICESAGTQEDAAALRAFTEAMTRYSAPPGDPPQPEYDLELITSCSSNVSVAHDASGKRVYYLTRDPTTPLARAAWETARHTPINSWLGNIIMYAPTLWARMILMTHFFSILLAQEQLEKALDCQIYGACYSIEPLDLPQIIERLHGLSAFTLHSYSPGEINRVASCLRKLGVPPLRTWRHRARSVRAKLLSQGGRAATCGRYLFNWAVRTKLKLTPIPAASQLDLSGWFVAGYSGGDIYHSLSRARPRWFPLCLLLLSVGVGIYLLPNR

SMILES	EC50 [18] [µM]	other results
COc1ccc2c(c1)C=C1Cn3c-2c(C2CCCCC2)c2ccc(cc23)C(=O)NS(=O)(=O)N(C)CCOCCN(C)C1=O [Compound 1]	–	Kd [1]: 0.022 µM; t1/2 [2]: 24.2 min; t1/2 [3]: 31.3 min; t1/2 [4]: 19.2 min; t1/2 [5]: 14.9 min; t1/2 [6]: 172.1 min; t1/2 [7]: 96.4 min; t1/2 [8]: 1.0 min; t1/2 [9]: 26.7 min; t1/2 [10]: 30.1 min; t1/2 [11]: 19.1 min; t1/2 [12]: 7.3 min; Kd [13]: 0.0021 µM; Kd [14]: 0.0014 µM; Kd [15]: 0.0034 µM; Kd [16]: 0.032 µM
COc1ccc2c(c1)C=C1Cn3c-2c(C2CCCCC2)c2ccc(cc23)C(=O)NS(=O)(=O)N2CCN(CCNC1=O)CC2 [Compound 5]	0.92	IC50 [17]: 0.29 µM
COc1ccc2c(c1)C=C1Cn3c-2c(C2CCCCC2)c2ccc(cc23)C(=O)NS(=O)(=O)N(C)CCN(C)CCNC1=O [Compound 6]	0.55	–
COc1ccc2c(c1)[C@@H]1C[C@]13Cn1c-2c(C2CCCCC2)c2ccc(cc21)C(=O)NS(=O)(=O)N(C)CCOCCN(C)C3=O [Compound 8, (1aR,12bS)-8-cyclohexyl-11-methoxy-16,22-dimethyl-1,12b-dihydro-5,1a-(methanoiminothioiminoethanooxyethanoiminomethano)cyclopropa[d]-indolo[2,1-a][2]benzazepine-13,23(2H)-dione 15,15-dioxide]	0.04	–
COc1ccc2c(c1)[C@H]1C[C@@]13Cn1c-2c(C2CCCCC2)c2ccc(cc21)C(=O)NS(=O)(=O)N(C)CCOCCN(C)C3=O [Compound 9, (1 aS,12bR)-8-cyclohexyl-11-methoxy-16,22-dimethyl-1,12b-dihydro-5,1a-(methanoiminothioiminoethanooxyethanoiminomethano)cyclopropa[d]indolo-[2,1-a][2]benzazepine-13,23(2H)-dione 15,15-dioxide]	0.8	–
COc1ccc2c(c1)C1CC13Cn1c-2c(C2CCCCC2)c2ccc(cc21)C(=O)NS(=O)(=O)N(C)CCCCNC3=O (stereo not shown) [Compound 10, 8-cyclohexyl-11-methoxy-16-methyl-1,12b-dihydro-5,1a-(methanoiminothioiminobutanoimino)cyclopropa[d]indolo[2,1-a][2]benzazepine-13,22(2H)-dione 15,15-dioxide]	0.06	IC50 [17]: 0.28 µM
COc1ccc2c(c1)C1CC13Cn1c-2c(C2CCCCC2)c2ccc(cc21)C(=O)NS(=O)(=O)N(C)CCN1CCN(CC1)C3=O (stereo not shown) [Compound 11, 31-cyclohexyl-8-methoxy-22-methyl-21-thia-1,13,20,22,25-pentaazaheptacyclo-[23.2.2.1^3,13.1^12,15.1^14,18.0^3,5.0^6,11]dotriaconta-6,8,10,12(31),14(30),15,17-heptaene-2,19-dione 21,21-dioxide]	0.055	IC50 [17]: 0.22 µM
COc1ccc2c(c1)C1CC13Cn1c-2c(C2CCCCC2)c2ccc(cc21)C(=O)NS(=O)(=O)N(C)C/C=C/CCNC3=O (stereo not shown) [Compound 12, 8-cyclohexyl-11-methoxy-16-methyl-1,12b-dihydro-5,1a-(methaniminothio-iminopent[2]enoiminomethano)cyclopropa[d]indolo[2,1-a][2]benzazepine-13,23(2H)-dione 15,15-dioxide]	0.29	IC50 [17]: 0.93 µM
COc1ccc2c(c1)C=C1Cn3c-2c(C2CCCCC2)c2ccc(cc23)C(=O)NS(=O)(=O)N(C)CC=CCNC1=O [Compound 13]	0.39	IC50 [17]: 0.19 µM
COc1ccc2c(c1)C=C1Cn3c-2c(C2CCCCC2)c2ccc(cc23)C(=O)NS(=O)(=O)N(C)CCN2CCN(CC2)C1=O [Compound 15]	0.18	–
COc1ccc2c(c1)C(C)=C1Cn3c-2c(C2CCCCC2)c2ccc(cc23)C(=O)NS(=O)(=O)N(C)CCOCCN(C)C1=O [Compound 16]	0.078	–
COc1ccc2c(c1)C(C)=C1Cn3c-2c(C2CCCCC2)c2ccc(cc23)C(=O)NS(=O)(=O)N(C)CCCCN(C)C1=O [Compound 17]	0.17	–
COc1ccc2c(c1)C=C1Cn3c-2c(C2CCCCC2)c2ccc(cc23)C(=O)NS(=O)(=O)N(C)CCCCN(C)C1=O [Compound 18]	0.079	–
CN1CCOCCN(C)S(=O)(=O)NC(=O)c2ccc3c(C4CCCCC4)c4n(c3c2)CC(=Cc2cc(F)ccc2-4)C1=O [Compound 19]	0.072	IC50 [19]: 0.031 µM
CC1=C2Cn3c(c(C4CCCCC4)c4ccc(cc43)C(=O)NS(=O)(=O)N(C)CCOCCN(C)C2=O)-c2ccc(F)cc21 [Compound 20]	0.081	IC50 [19]: 0.038 µM
CN1CCOCCN(C)S(=O)(=O)NC(=O)c2ccc3c(C4CCCCC4)c4n(c3c2)CC(=Cc2cc(Cl)ccc2-4)C1=O [Compound 21]	0.28	–
COc1ccc2c(c1)C=C1Cn3c-2c(C2CCCCC2)c2ccc(cc23)C(=O)NS(=O)(=O)N(C)CCCCCCN(C)C1=O [Compound 22]	0.16	–
COc1ccc2c(c1)C=C1Cn3c-2c(C2CCCCC2)c2ccc(cc23)C(=O)NS(=O)(=O)NCCN(C)CCNC1=O [Compound 23]	0.47	–
CN1CCCCN(C)S(=O)(=O)NC(=O)c2ccc3c(C4CCCCC4)c4n(c3c2)CC(=Cc2ccc(Cl)cc2-4)C1=O [Compound 24]	14.5	–
COc1ccc2c(c1)C=C1Cn3c-2c(C2CCCCC2)c2ccc(cc23)C(=O)NS(=O)(=O)NCCCCN(C)C1=O [Compound 25]	0.55	–
COc1ccc2c(c1)C=C1Cn3c-2c(C2CCCCC2)c2ccc(cc23)C(=O)NS(=O)(=O)N(C)CCCCCNC1=O [Compound 26]	0.13	–
CN1CCCCCNC(=O)C2=Cc3ccc(Cl)cc3-c3c(C4CCCCC4)c4ccc(cc4n3C2)C(=O)NS1(=O)=O [Compound 27]	10.2	–
COc1ccc2c(c1)C=C1Cn3c-2c(C2CCCCC2)c2ccc(cc23)C(=O)NS(=O)(=O)N(C(C)C)CCCCN(C)C1=O [Compound 28]	0.33	–
COc1ccc2c(c1)C=C1Cn3c-2c(C2CCCCC2)c2ccc(cc23)C(=O)NS(=O)(=O)N(C)CCCCNC1=O [Compound 38]	0.912	–
